Measurements from US11850220B2 (Augusta University Research Institute, Inc., priority 2020, dated 2023).

What was measured:
[1] = test system: carrageenan-induced paw edema; experiment: carrageenan-induced paw edema technique (anti-inflammatory); assay type: in vivo; settings: for Observed (1/property): 1/(% inhibition of edema thickness at 3 h effect); for Observed (1/property): test concentration or dose not given here; for Potency (% Inhibition relative to indomethacin at 3 h effect): test concentration or dose not given here
Text: Anti-inflammatory properties of the ibuprofen-amino acid conjugate (5a-j) and ibuprofen-amino acid-4-aminophenol conjugates 7a-j were studied by the standard carrageenan-induced paw edema technique (Naumov, R. N. et al., Bioorg. Med. Chem. Lett. 2015, 25, 2314-2320; Tiwari, A. D. et al., Org. Biomol. Chem. 2014, 12, 7238-7249).

animal gastric mucosa = experiment: ulcerogenic liability; assay type: in vivo; settings: in vivo
[2] = test system: acetic acid-induced abdominal writhing; experiment: acetic acid-induced abdominal writhing technique (peripheral analgesic); assay type: in vivo; settings: for Potency: Relative to indomethacin; for % Inhibition/protection / Writing reflex ± SEM: in vivo; for % Inhibition/protection: test concentration or dose not given here; for Writing reflex ± SEM: test concentration or dose not given here
hot plate = hot plate technique (central analgesic); assay type: in vivo; settings: for Potency: Relative to indomethacin at 120 min.
COX-1 = COX-1 (Homo sapiens, UniProt P23219); experiment: COX-1/2 bio-assay: COX-1; assay type: biochemical; settings: read-out: IC50 ± SD, COX-1
Chain of COX-1 (P23219 24-599): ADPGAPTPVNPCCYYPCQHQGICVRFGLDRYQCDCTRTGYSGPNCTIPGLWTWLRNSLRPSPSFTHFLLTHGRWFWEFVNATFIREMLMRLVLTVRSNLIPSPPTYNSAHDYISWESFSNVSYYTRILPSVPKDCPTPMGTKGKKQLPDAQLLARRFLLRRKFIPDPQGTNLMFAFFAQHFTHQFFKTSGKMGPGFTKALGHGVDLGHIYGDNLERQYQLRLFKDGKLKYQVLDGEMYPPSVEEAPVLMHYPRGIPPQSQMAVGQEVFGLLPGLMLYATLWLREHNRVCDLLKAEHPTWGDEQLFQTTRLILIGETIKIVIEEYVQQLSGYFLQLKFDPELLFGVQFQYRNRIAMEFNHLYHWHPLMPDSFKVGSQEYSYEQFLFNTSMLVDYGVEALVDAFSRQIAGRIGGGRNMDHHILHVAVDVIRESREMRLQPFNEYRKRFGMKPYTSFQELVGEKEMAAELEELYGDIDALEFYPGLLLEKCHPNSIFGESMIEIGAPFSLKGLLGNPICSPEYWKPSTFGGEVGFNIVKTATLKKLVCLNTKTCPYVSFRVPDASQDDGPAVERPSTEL
Text: (§1) Cyclooxygenases (COX) are the key enzymes capable of the conversion of arachidonic acid to prostaglandins.

COX-2 = molecular target: T1, COX-2 (Homo sapiens, UniProt P35354); experiment: COX-1/2 bio-assay: COX-2; assay type: biochemical; settings: for IC50: read-out: IC50 ± SD, COX-2; for SI(COX-2/COX-1): selectivity index COX-2/COX-1
T1 sequence (P35354 18-604): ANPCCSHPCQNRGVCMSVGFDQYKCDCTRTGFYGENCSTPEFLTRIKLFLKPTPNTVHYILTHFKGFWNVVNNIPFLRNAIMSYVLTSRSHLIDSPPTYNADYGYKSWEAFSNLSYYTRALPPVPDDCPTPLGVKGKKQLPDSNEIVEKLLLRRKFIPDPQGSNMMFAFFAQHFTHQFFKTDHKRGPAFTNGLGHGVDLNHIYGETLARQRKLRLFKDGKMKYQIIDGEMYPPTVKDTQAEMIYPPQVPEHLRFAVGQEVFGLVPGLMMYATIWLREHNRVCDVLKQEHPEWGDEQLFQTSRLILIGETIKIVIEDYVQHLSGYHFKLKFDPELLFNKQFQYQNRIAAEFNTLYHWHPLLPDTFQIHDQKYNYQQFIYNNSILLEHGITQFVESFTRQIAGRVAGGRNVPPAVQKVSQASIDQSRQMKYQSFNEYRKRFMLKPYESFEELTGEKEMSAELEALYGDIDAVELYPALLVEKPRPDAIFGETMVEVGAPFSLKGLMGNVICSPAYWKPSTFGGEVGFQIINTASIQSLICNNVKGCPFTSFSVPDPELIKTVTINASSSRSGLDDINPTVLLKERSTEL
Text: as §1

[3] = % inhibition of edema thickness at 3 h effect, Table 7
[4] = anti-inflammatory property (% inhibition of edema at 3 h), Table 8

Structure (SMILES) | Observed (1/property) ([1]; Table 7) | % inhibition of edema ([1]; 1 h) [%] | Mean edema thickness ([1]; 1 h) [mm] | % inhibition of edema ([1]; 2 h) [%] | Mean edema thickness ([1]; 2 h) [mm] | % inhibition of edema ([1]; 3 h) [%] | Mean edema thickness ([1]; 3 h) [mm] | % inhibition of edema ([1]; 4 h) [%] | Mean edema thickness ([1]; 4 h) [mm] | % inhibition of edema ([1]; 24 h) [%] | Mean edema thickness ([1]; 24 h) [mm] | Observed property [1, 3] [%] | Observed property [1, 4] [%] | Potency (% Inhibition relative to indomethacin at 3 h effect) [1] [%] | % Incidence of ulcer divided by 10 (animal gastric mucosa) | Average of ulcer number (animal gastric mucosa) | Average severity of ulcer (animal gastric mucosa) | Number of animals with ulcer (animal gastric mucosa) | Ulcer index (animal gastric mucosa) | Potency [2] | other results
CC(C)Cc1ccc(C(C)C(=O)N[C@@H](Cc2ccccc2)C(=O)Nc2ccc(O)cc2)cc1 (stereo partly drawn) [Compound 7e, (2S)-N-(4-Hydroxyphenyl)-2-(2-(4-isobutylphenyl)propanamido)-3-phenylpropanamide] | 0.01333 | 38 | 0.76 ± 0.05 | 69 | 0.47 ± 0.03 | 75 | 0.32 ± 0.01 | 77 | 0.29 ± 0.03 | 11 | 0.17 ± 0.03 | 75 | 75 | 94 | 0 | 0 | 0 | 0 | 0 | 134 | % Inhibition/protection [2]: 73.6%; Writing reflex ± SEM [2]: 25.7 ± 1.0; % protection (hot plate; After 30 min.): (78.1) %; Latency period ± SEM (hot plate; After 30 min.): 4.31 ± 0.04 s; % protection (hot plate; After 60 min.): (104.9) %; Latency period ± SEM (hot plate; After 60 min.): 4.57 ± 0.03 s; % protection (hot plate; After 90 min.): (136.4) %; Latency period ± SEM (hot plate; After 90 min.): 5.20 ± 0.07 s; % protection (hot plate; After 120 min.): (144.3) %; Latency period ± SEM (hot plate; After 120 min.): 5.35 ± 0.03 s; Potency (hot plate): 255; IC50 (COX-1): 13.2 ± 0.65 µM; IC50 (COX-2): 69.8 ± 4.93 µM; SI(COX-2/COX-1) (COX-2): 5.3; melting point: 168.7 °C
CC[C@H](C)[C@@H](NC(=O)C(C)c1ccc(CC(C)C)cc1)C(=O)Nc1ccc(O)cc1 (stereo partly drawn) [Compound 7f] | 0.01111 | 42 | 0.71 ± 0.01 | 48 | 0.79 ± 0.04 | 90 | 0.13 ± 0.02 | 16 | 1.05 ± 0.05 | 42 | 0.11 ± 0.02 | 90 | 90 | 113 | 0 | 0 | 0 | 0 | 0 | 155 | % Inhibition/protection [2]: 85.3%; Writing reflex ± SEM [2]: 14.3 ± 0.8; % protection (hot plate; After 30 min.): (64.5) %; Latency period ± SEM (hot plate; After 30 min.): 3.98 ± 0.06 s; % protection (hot plate; After 60 min.): (74.0) %; Latency period ± SEM (hot plate; After 60 min.): 3.88 ± 0.02 s; % protection (hot plate; After 90 min.): (76.4) %; Latency period ± SEM (hot plate; After 90 min.): 3.88 ± 0.04 s; % protection (hot plate; After 120 min.): (164.4) %; Latency period ± SEM (hot plate; After 120 min.): 5.79 ± 0.04 s; Potency (hot plate): 290; potency, central analgesic properties (hot plate; in vivo): 2.9 folds of indomethacin; IC50 (COX-1): 4.86 ± 0.24 µM; IC50 (COX-2): 141 ± 11.1 µM; SI(COX-2/COX-1) (COX-2): 29.0; melting point: 205 °C
CC(C)Cc1ccc(C(C)C(=O)N[C@@H](CC(C)C)C(=O)Nc2ccc(O)cc2)cc1 (stereo partly drawn) [Compound 7g, (2S)-N-(4-Hydroxyphenyl)-2-(2-(4-isobutylphenyl)propanamido)-4-methylpentanamide] | 0.01333 | 30 | 0.86 ± 0.03 | 39 | 0.92 ± 0.04 | 75 | 0.33 ± 0.03 | 48 | 0.65 ± 0.03 | 37 | 0.12 ± 0.03 | 75 | 75 | 94 | 0 | 0 | 0 | 0 | 0 | 144 | % Inhibition/protection [2]: 79.1%; Writing reflex ± SEM [2]: 20.3 ± 0.9; % protection (hot plate; After 30 min.): (36.0) %; Latency period ± SEM (hot plate; After 30 min.): 3.29 ± 0.05 s; % protection (hot plate; After 60 min.): (39.0) %; Latency period ± SEM (hot plate; After 60 min.): 3.10 ± 0.01 s; % protection (hot plate; After 90 min.): (43.6) %; Latency period ± SEM (hot plate; After 90 min.): 3.16 ± 0.06 s; % protection (hot plate; After 120 min.): (79.0) %; Latency period ± SEM (hot plate; After 120 min.): 3.92 ± 0.08 s; Potency (hot plate): 140; IC50 (COX-1): 2.65 ± 0.13 µM; IC50 (COX-2): 144 ± 11.2 µM; SI(COX-2/COX-1) (COX-2): 54.3; melting point: 230.5 °C
CC(C)Cc1ccc(C(C)C(=O)N[C@H](C(=O)Nc2ccc(O)cc2)C(C)C)cc1 (stereo partly drawn) [Compound 7h, (2S)-N-(4-Hydroxyphenyl)-2-(2-(4-isobutylphenyl)propanamido)-3-methylbutanamide] | 0.01333 | 11 | 1.09 ± 0.06 | 54 | 0.69 ± 0.05 | 75 | 0.32 ± 0.03 | 48 | 0.65 ± 0.04 | 21 | 0.15 ± 0.03 | 75 | 75 | 94 | 0 | 0 | 0 | 0 | 0 | 137 | % Inhibition/protection [2]: 75.3%; Writing reflex ± SEM [2]: 24.0 ± 0.4; % protection (hot plate; After 30 min.): (58.3) %; Latency period ± SEM (hot plate; After 30 min.): 3.83 ± 0.02 s; % protection (hot plate; After 60 min.): (62.3) %; Latency period ± SEM (hot plate; After 60 min.): 3.62 ± 0.03 s; % protection (hot plate; After 90 min.): (58.6) %; Latency period ± SEM (hot plate; After 90 min.): 3.49 ± 0.18 s; % protection (hot plate; After 120 min.): (50.7) %; Latency period ± SEM (hot plate; After 120 min.): 3.30 ± 0.02 s; Potency (hot plate): 90; IC50 (COX-1): 10.4 ± 0.51 µM; IC50 (COX-2): 133 ± 9.4 µM; SI(COX-2/COX-1) (COX-2): 12.8; melting point: 202.2 °C
